Reference: PMC9960307, “Design, Synthesis, Biological Evaluation, and Molecular Dynamics Simulation of Influenza Polymerase PB2 Inhibitors” (Molecules, 2023)
Several values for one entry are separate records, joined by “and”; a condition that tells them apart may be missing. Equal values may be shown once. Read-outs that look alike come from different tables or passages of the source.

Key:
in vitro [1] = conditions: human, microsomes, pH 7.4, Microsome T1/2, Human, human liver microsomes, 1 μM
[2] = system: influenza virus A/Puerto Rico/8/1934 (H1N1); assay: Cytopathic effect (CPE) inhibition assay, H1N1; format: cell-based, influenza A/Puerto Rico/8/1934 (H1N1); conditions: MDCK, 72 h, read-out: H1N1 IC50
in vitro [3] = conditions: rat, microsomes, pH 7.4, Microsome T1/2, Rat, rat liver microsomes, 1 μM
[4] = design: method as in PMID 32604406; conditions: phase II clinical trial; cited from earlier work
[5] = target: T1, influenza A/WSN/1933 (H1N1) PB2 CBD (aa.318-486) (Influenza A virus, UniProt P03427); assay: SPR competitive binding assay (Biacore T200)
T1 construct: influenza A/WSN/1933 (H1N1) PB2 CBD (aa.318-486); purchased
Method: Biomolecular interaction analysis based on surface plasmon resonance (SPR) assays was performed using VX-787 and comp. I and II at concentrations ranging from 20 to 0.156 µM to investigate their competitive binding affinities with PB2 (Table 1).
Commercial companies express and purify HIN1 PB2 CBD protein, which provides influenza A/WSN/1933 (H1N1) PB2 CBD (aa.318-486). Using a Biacore T200 (GE Healthcare) and a running buffer of which contains a solution of 1 × PBS-P + 0.02 M phosphate buffer, 2.7 mM KCl, 0.137 M NaCl, and 0.05% Tween 20, H1N1 PB2 was immobilized to a level of 4900 response units (RUs). Serial dilutions of small molecules were injected, ranging in concentration from 20 µM to 0.156 µM. GE Healthcare’s Biacore Evaluation Software was used to fit the resulting data to the affinity binding model.

virus-free cells = system: virus-free cells; design: method as in PMID 25547360; conditions: incubated in virus-free cells; cited from earlier work
in vitro [6] = conditions: dog
[7] = not given; remark: listed apart in the source
[8] = system: influenza virus A/Hong Kong/8/68 (H3N2); assay: Cytopathic effect (CPE) inhibition assay, H3N2; format: cell-based, influenza A/Hong Kong/8/68 (H3N2); conditions: MDCK cells, MOI 0.005, 72 h, CellTiter-Glo
aldehyde oxidase (AO) = target: T2, aldehyde oxidase (AO) (Homo sapiens, UniProt Q06278); assay: AO-mediated metabolic stability in human liver cytosol with/without raloxifene; format: in vitro ADME; conditions: for sensitivity to aldehyde oxidase (AO substrate or not): human liver cytosol, in words; for half-life at 1 μM: pooled liver (hepatocyte) cytosol, pH 7.4, human liver cytoplasm, read-out: Cytoplasm T1/2, Human
T2 construct: Human liver cytosolic protein was incubated with VX-787, comp; I, and comp; II; from tissue; host or cells: pooled human liver (hepatocyte) cytosol
T2 sequence (Q06278 1-1338): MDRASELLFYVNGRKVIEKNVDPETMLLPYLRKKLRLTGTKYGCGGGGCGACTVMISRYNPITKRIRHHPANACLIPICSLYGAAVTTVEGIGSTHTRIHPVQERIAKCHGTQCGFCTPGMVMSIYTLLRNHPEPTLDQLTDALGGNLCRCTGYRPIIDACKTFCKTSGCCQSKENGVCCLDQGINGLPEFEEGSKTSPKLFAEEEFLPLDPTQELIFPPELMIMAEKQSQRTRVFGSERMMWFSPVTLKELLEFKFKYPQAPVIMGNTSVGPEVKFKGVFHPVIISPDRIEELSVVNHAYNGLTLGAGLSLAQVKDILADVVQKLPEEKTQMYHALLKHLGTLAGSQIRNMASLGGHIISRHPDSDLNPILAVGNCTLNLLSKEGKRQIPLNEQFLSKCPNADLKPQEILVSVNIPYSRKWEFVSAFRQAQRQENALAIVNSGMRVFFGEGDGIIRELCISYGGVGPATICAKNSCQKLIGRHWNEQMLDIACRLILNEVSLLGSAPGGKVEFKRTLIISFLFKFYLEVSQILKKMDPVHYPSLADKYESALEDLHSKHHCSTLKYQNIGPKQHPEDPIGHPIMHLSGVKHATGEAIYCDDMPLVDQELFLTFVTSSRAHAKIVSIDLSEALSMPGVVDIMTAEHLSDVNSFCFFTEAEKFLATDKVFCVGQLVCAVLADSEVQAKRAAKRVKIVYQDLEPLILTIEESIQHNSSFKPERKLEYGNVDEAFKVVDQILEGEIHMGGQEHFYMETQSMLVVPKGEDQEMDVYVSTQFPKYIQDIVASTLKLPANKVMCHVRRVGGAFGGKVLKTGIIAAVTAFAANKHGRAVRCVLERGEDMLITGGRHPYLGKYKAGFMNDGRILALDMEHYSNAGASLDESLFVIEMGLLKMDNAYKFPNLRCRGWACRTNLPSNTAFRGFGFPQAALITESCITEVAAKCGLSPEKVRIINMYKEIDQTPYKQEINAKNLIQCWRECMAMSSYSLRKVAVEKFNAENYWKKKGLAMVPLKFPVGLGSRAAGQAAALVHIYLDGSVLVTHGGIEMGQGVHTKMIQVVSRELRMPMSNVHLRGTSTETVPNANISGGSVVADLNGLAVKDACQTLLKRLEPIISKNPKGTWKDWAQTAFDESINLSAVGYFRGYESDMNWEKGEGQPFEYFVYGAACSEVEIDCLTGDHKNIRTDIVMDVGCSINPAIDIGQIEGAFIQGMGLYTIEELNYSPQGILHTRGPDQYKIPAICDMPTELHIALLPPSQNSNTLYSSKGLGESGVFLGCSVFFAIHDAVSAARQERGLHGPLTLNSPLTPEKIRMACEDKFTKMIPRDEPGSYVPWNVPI

[9] = oral dose 600 mg, bid, healthy volunteers; cited from earlier work
influenza virus = assay: CPE inhibition assay as summarised in the conclusions (strain not stated); format: cell-based; conditions: unidentified influenza virus
[10] = not given; remark: listed apart in the source
[11] = with AO inhibitor raloxifene, 0 min
[12] = with AO inhibitor raloxifene, 15 min
[13] = with AO inhibitor raloxifene, 30 min
[14] = with AO inhibitor raloxifene, 60 min

T1 sequence (P03427 318-486): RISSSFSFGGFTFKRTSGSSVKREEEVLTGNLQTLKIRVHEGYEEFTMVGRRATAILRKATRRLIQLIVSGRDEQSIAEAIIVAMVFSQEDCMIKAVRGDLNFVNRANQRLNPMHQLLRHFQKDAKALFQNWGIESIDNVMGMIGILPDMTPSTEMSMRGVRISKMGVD

In the case of `O=C(O)[C@H]1C2CCC(CC2)[C@@H]1Nc1nc(-c2c[nH]c3ncc(F)cc23)ncc1F` [VX-787, pimodivir, reference compound], the “Microsome Clh, Human” value (human liver microsomes) is reported as 1.49 mL/min/kg, the “Residual percentage in human liver microsome” value (with NADPH, 0 min) is reported as 99.99±4.23% and the “Residual percentage in human liver microsome” value (with NADPH, 5 min) is reported as 103.84±1.21%. For the same compound, the “Residual percentage in human liver microsome” value (with NADPH, 15 min) was 91.56±7.20%, the “Residual percentage in human liver microsome” value (with NADPH, 30 min) was 101.85±8.49% and the “Residual percentage in human liver microsome” value (with NADPH, 60 min) was 89.33±8.96% and 89.33%. The “Residual percentage in human liver microsome” value (without NADPH, 0 min) was 100.00%, the “Residual percentage in human liver microsome” value (without NADPH, 5 min) was 110.26% and the “Residual percentage in human liver microsome” value (without NADPH, 15 min) was 100.78%. The “Residual percentage in human liver microsome” value (without NADPH, 30 min) was 113.32%, the “Residual percentage in human liver microsome” value (without NADPH, 60 min) was 107.81% and the half-life (in vitro [1]) was 5.82 h. The IC50 [2] was less than 3 nM, the half-life (in vitro [3]) was 4.16 h and the adverse effects [4] was “no serious adverse effects”. The “viral load in patients” value [4] was “reduce the viral load”, the Kd ([5]; 20 to 0.156 µM, affinity binding model, read-out: SPR KD) was 152 nM and the cytotoxicity (virus-free cells) was “no cytotoxicity”. For the same compound, the CC50 (in vitro [6]) was greater than 200000 nM, the “Microsome Clh, Rat” value ([7]; rat liver microsomes) was 1.72 mL/min/kg and the “Residual percentage in rat liver microsome” value ([7]; with NADPH, 0 min) was 99.99±0.99%. For the same compound, the “Residual percentage in rat liver microsome” value ([7]; with NADPH, 5 min) was 98.25±4.53%, the “Residual percentage in rat liver microsome” value ([7]; with NADPH, 15 min) was 95.80±0.68% and the “Residual percentage in rat liver microsome” value ([7]; with NADPH, 30 min) was 91.51±3.09%. For the same compound, the “Residual percentage in rat liver microsome” value ([7]; with NADPH, 60 min) was 88.79±2.11% and 88%, the “Residual percentage in rat liver microsome” value ([7]; without NADPH, 0 min) was 99.99±2.01% and the “Residual percentage in rat liver microsome” value ([7]; without NADPH, 5 min) was 109.05%. For the same compound, the “Residual percentage in rat liver microsome” value ([7]; without NADPH, 15 min) was 103.93%, the “Residual percentage in rat liver microsome” value ([7]; without NADPH, 30 min) was 100.41% and the “Residual percentage in rat liver microsome” value ([7]; without NADPH, 60 min) was 92.13±5.76%. For the same compound, the IC50 [8] was less than 3 nM, the “sensitivity to aldehyde oxidase (AO substrate or not)” value (shortened to “sensitivity … (AO substrate or not)”) (aldehyde oxidase (AO)) was “indeed an AO substrate” and the half-life at 1 μM (aldehyde oxidase (AO)) was 2.5 h. The “Residual percentage in 0.5mg/ml human liver cytoplasm” value (aldehyde oxidase (AO); [11]) was 100.00±3.54%, the “Residual percentage in 0.5mg/ml human liver cytoplasm” value (aldehyde oxidase (AO); [12]) was 100.65±7.76% and the “Residual percentage in 0.5mg/ml human liver cytoplasm” value (aldehyde oxidase (AO); [13]) was 97.25±1.77%. For the same compound, the “Residual percentage in 0.5mg/ml human liver cytoplasm” value (aldehyde oxidase (AO); without raloxifene, 0 min) was 100.00±7.65%, the “Residual percentage in 0.5mg/ml human liver cytoplasm” value (aldehyde oxidase (AO); without raloxifene, 15 min) was 87.02±9.00% and the “Residual percentage in 0.5mg/ml human liver cytoplasm” value (aldehyde oxidase (AO); without raloxifene, 30 min) was 90.17±9.31%. For the same compound, the “Residual percentage in 0.5mg/ml human liver cytoplasm” value (aldehyde oxidase (AO); without raloxifene, 60 min) was 71.87±6.78% and 72% and the “safety in phase I clinical trial” value [9] was “no safety issues”.

Work on `O=C(O)C1C2CCC(CC2)C1Nc1nc(-n2c(=O)[nH]c3ncc(F)cc32)ncc1F` [comp. I, (1R,2S,3S,4R)-3-((5-fluoro-2-(6-fluoro-2-oxo-2,3-dihydro-1H-imidazo[4,5-b]pyridin-1-yl)pyrimidin-4-yl)amino)bicyclo[2.2.2]octane-2-carboxylic acid] yielded a half-life (in vitro [1]) greater than 13.3 h, an IC50 [2] of 70 ± 20 nM and a half-life (in vitro [3]) greater than 13.3 h. The Kd [5] was 1400 nM, the CC50 at 72 h (in vitro [6]) was greater than 200000 nM and the “Residual percentage in rat liver microsome” value ([7]; rat, 0 min, 1 μM, pH 7.4) was 100.00%. The “Microsome Clh, Rat” value ([7]; rat, 1 μM, pH 7.4) was 0.53 mL/min/kg, the IC50 [8] was 40 ± 10 nM and the “sensitivity … (AO substrate or not)” value (aldehyde oxidase (AO)) was “remains as a substrate”. For the same compound, the half-life at 1 μM (aldehyde oxidase (AO)) was greater than 13.3 h, the “Residual percentage in 0.5mg/ml human liver cytoplasm” value (aldehyde oxidase (AO); [11]) was 100.00±3.87% and the “Residual percentage in 0.5mg/ml human liver cytoplasm” value (aldehyde oxidase (AO); [12]) was 108.27±5.07%. The “Residual percentage in 0.5mg/ml human liver cytoplasm” value (aldehyde oxidase (AO); [13]) was 102.66±4.43%, the “Residual percentage in 0.5mg/ml human liver cytoplasm” value (aldehyde oxidase (AO); [14]) was 112.89±1.99% and the “Residual percentage in 0.5mg/ml human liver cytoplasm” value (aldehyde oxidase (AO); without raloxifene, 0 min) was 100.00±6.12%. The “Residual percentage in 0.5mg/ml human liver cytoplasm” value (aldehyde oxidase (AO); without raloxifene, 15 min) was 95.20±3.72%, the “Residual percentage in 0.5mg/ml human liver cytoplasm” value (aldehyde oxidase (AO); without raloxifene, 30 min) was 99.98±8.74% and the “Residual percentage in 0.5mg/ml human liver cytoplasm” value (aldehyde oxidase (AO); without raloxifene, 60 min) was 93%. The “Residual percentage in 0.5mg/ml human liver cytoplasm” value (aldehyde oxidase (AO); without raloxifene, 60 min, listed as Comp I) was 93.52±8.82% and the EC50 (influenza virus) was 40 nM.

In the case of `N=c1[nH]c2ncc(F)cc2n1-c1ncc(F)c(NC2C3CCC(CC3)C2C(=O)O)n1` [comp. II, (1R,2S,3S,4R)-3-((2-(2-amino-6-fluoro-1H-imidazo[4,5-b]20yridine-1-yl)-5-fluoropyrimidin-4-yl)amino)bicyclo[2.2.2]octane-2-carboxylic acid], the “Microsome Clh, Human” value (human, 1 μM, pH 7.4) is reported as 0.46 mL/min/kg, the half-life (in vitro [1]) is reported as greater than 13.3 h and the IC50 [2] is reported as 90 ± 50 nM. It also gave a half-life (in vitro [3]) greater than 13.3 h, a melting point [10] of 315 to 317 °C and a Kd [5] of 1670 nM. For the same compound, the CC50 at 72 h (in vitro [6]) was greater than 200000 nM, the IC50 [8] was 70 ± 30 nM and the “sensitivity … (AO substrate or not)” value (aldehyde oxidase (AO)) was “nearly unaffected”. For the same compound, the half-life at 1 μM (aldehyde oxidase (AO)) was greater than 13.3 h, the “Residual percentage in 0.5mg/ml human liver cytoplasm” value (aldehyde oxidase (AO); [11]) was 100.00±8.74% and the “Residual percentage in 0.5mg/ml human liver cytoplasm” value (aldehyde oxidase (AO); [12]) was 110.60±4.82%. For the same compound, the “Residual percentage in 0.5mg/ml human liver cytoplasm” value (aldehyde oxidase (AO); [13]) was 107.60±7.80%, the “Residual percentage in 0.5mg/ml human liver cytoplasm” value (aldehyde oxidase (AO); [14]) was 109.12±6.67% and the “Residual percentage in 0.5mg/ml human liver cytoplasm” value (aldehyde oxidase (AO); without raloxifene, 0 min) was 100.00±0.44%. For the same compound, the “Residual percentage in 0.5mg/ml human liver cytoplasm” value (aldehyde oxidase (AO); without raloxifene, 15 min) was 107.07±16.04%, the “Residual percentage in 0.5mg/ml human liver cytoplasm” value (aldehyde oxidase (AO); without raloxifene, 30 min) was 108.17±9.51% and the “Residual percentage in 0.5mg/ml human liver cytoplasm” value (aldehyde oxidase (AO); without raloxifene, 60 min) was “barely changed”. For the same compound, the “Residual percentage in 0.5mg/ml human liver cytoplasm” value (aldehyde oxidase (AO); without raloxifene, 60 min, listed as Comp II) was 103.11±2.84% and the EC50 (influenza virus) was 90 nM.
